Drawing on patent publication US11083196B2, “Microbiocidal oxadiazole derivatives” (SYNGENTA PARTICIPATIONS AG, priority 2016, dated 2021), this text covers inhibition of growth, pest or weed control and melting point for 16 compounds.

Where “and” joins values, the source holds several entries; their conditions need not be identical. Equal values may be shown once.

Data set [1] has as its system Glomerella lagenarium (Colletotrichum lagenarium). The data set is described as follows: Fungicidal activity against Glomerella lagenarium (Colletotrichum lagenarium), liquid culture / cucumber / preventative (anthracnose). Type of data set: cell-based. The settings on record: Colletotrichum orbiculare, liquid culture (PDB), growth inhibition measured photometrically 3-4 days after application, compared to untreated control. As to the method:
Mycelia fragments or conidia suspensions of a fungus, prepared either freshly from liquid cultures of the fungus or from cryogenic storage, are directly mixed into nutrient broth. DMSO solutions of the test compound (max. 10 mg/ml) is diluted with 0.025% Tween20 by a factor of 50 and 10 μl of this solution is pipetted into a microtiter plate (96-well format). The nutrient broth containing the fungal spores/mycelia fragments is then added to give an end concentration of the tested compound. The test plates are incubated in the dark at 24° C. and 96% relative humidity. The inhibition of fungal growth is determined photometrically after 2 to 7 days, depending on the pathosystem, and percent antifungal activity relative to the untreated check is calculated. Conidia of the fungus from cryogenic storage are directly mixed into nutrient broth (PDB potato dextrose broth). After placing a (DMSO) solution of test compound into a microtiter plate (96-well format), the nutrient broth containing the fungal spores is added. The test plates are incubated at 24° C. and the inhibition of growth is measured photometrically 3-4 days after application.

The subject of another data set is Phakopsora pachyrhizi. The experiment in a line: Fungicidal activity against Phakopsora pachyrhizi / soybean / leaf disc preventative (Asian soybean rust). Type of data set: in vivo. As to conditions: foliar, 288 h, soybean leaf disks, inoculated one day after application, assessed 12-14 days after application, compared to untreated control. As to the method: Leaf disks or leaf segments of various plant species are cut from plants grown in a greenhouse. The cut leaf disks or segments are placed in multiwell plates (24-well format) onto water agar. The leaf disks are sprayed with a test solution before (preventative) or after (curative) inoculation. Compounds to be tested are prepared as DMSO solutions (max. 10 mg/ml) which are diluted to the appropriate concentration with 0.025% Tween20 just before spraying. The inoculated leaf disks or segments are incubated under defined conditions (temperature, relative humidity, light, etc.) according to the respective test system. A single evaluation of disease level is carried out 3 to 14 days after inoculation, depending on the pathosystem. Percent disease control relative to the untreated check leaf disks or segments is then calculated. Soybean leaf disks are placed on water agar in multiwell plates (24-well format) and sprayed with the formulated test compound diluted in water. One day after application leaf discs are inoculated by spraying a spore suspension on the lower leaf surface. After an incubation period in a climate cabinet of 24-36 hours in darkness at 20° C. and 75% rh leaf disc are kept at 20° C. with 12 h light/day and 75% rh. The activity of a compound is assessed as percent disease control compared to untreated when an appropriate level of disease damage appears in untreated check leaf disks (12-14 days after application).

Data set [2] has as its system Puccinia recondita f. sp. tritici. The experiment in a line: Fungicidal activity against Puccinia recondita f. sp. tritici / wheat / leaf disc curative (brown rust). Format: in vivo. The settings on record: foliar, 144 h, wheat leaf segments cv. Kanzler, applied 1 day after inoculation, assessed 6-8 days after application, compared to untreated control. As to the method: Leaf disks or leaf segments of various plant species are cut from plants grown in a greenhouse. The cut leaf disks or segments are placed in multiwell plates (24-well format) onto water agar. The leaf disks are sprayed with a test solution before (preventative) or after (curative) inoculation. Compounds to be tested are prepared as DMSO solutions (max. 10 mg/ml) which are diluted to the appropriate concentration with 0.025% Tween20 just before spraying. The inoculated leaf disks or segments are incubated under defined conditions (temperature, relative humidity, light, etc.) according to the respective test system. A single evaluation of disease level is carried out 3 to 14 days after inoculation, depending on the pathosystem. Percent disease control relative to the untreated check leaf disks or segments is then calculated. Wheat leaf segments cv. Kanzler are placed on agar in multiwell plates (24-well format). The leaf segments are inoculated with a spore suspension of the fungus. Plates are stored in darkness at 19° C. and 75% rh. The formulated test compound diluted in water is applied 1 day after inoculation. The leaf segments are incubated at 19° C. and 75% rh under a light regime of 12 h light/12 h darkness in a climate cabinet and the activity of a compound is assessed as percent disease control compared to untreated when an appropriate level of disease damage appears in untreated check leaf segments (6-8 days after application).

The test system is the same in data set [3]. The data set is described as follows: Fungicidal activity against Puccinia recondita f. sp. tritici / wheat / leaf disc preventative (brown rust). Type of data set: in vivo. As to conditions: foliar, 168 h, wheat leaf segments cv. Kanzler, inoculated 1 day after application, assessed 7-9 days after application, compared to untreated control. Here is the method:
Leaf disks or leaf segments of various plant species are cut from plants grown in a greenhouse. The cut leaf disks or segments are placed in multiwell plates (24-well format) onto water agar. The leaf disks are sprayed with a test solution before (preventative) or after (curative) inoculation. Compounds to be tested are prepared as DMSO solutions (max. 10 mg/ml) which are diluted to the appropriate concentration with 0.025% Tween20 just before spraying. The inoculated leaf disks or segments are incubated under defined conditions (temperature, relative humidity, light, etc.) according to the respective test system. A single evaluation of disease level is carried out 3 to 14 days after inoculation, depending on the pathosystem. Percent disease control relative to the untreated check leaf disks or segments is then calculated. Wheat leaf segments cv. Kanzler are placed on agar in multiwell plates (24-well format) and sprayed with the formulated test compound diluted in water. The leaf disks are inoculated with a spore suspension of the fungus 1 day after application. The inoculated leaf segments are incubated at 19° C. and 75% rh under a light regime of 12 h light/12 h darkness in a climate cabinet and the activity of a compound is assessed as percent disease control compared to untreated when an appropriate level of disease damage appears in untreated check leaf segments (7-9 days after application).

For the compound `COCC(=O)NC1CSC(c2ccc(-c3noc(C(F)(F)F)n3)cc2)=N1` (centres unmarked) [Compound A-28, 2-methoxy-N-(2-[4-[5-(trifluoromethyl)-1,2,4-oxadiazol-3-yl]phenyl]-4,5-dihydrothiazol-4-yl]acetamide], the inhibition of growth at 20 ppm in data set [1] is at least 80%. Moreover, the pest or weed control at 200 ppm (in the data set on Phakopsora pachyrhizi; in data set [2]; in data set [3]) was at least 80% each time.
As for `Cc1cc(C)n(-c2ccc(-c3noc(C(F)(F)F)n3)cc2)n1` [Compound E-1, 3-[4-(3,5-dimethylpyrazol-1-yl)phenyl]-5-(trifluoromethyl)-1,2,4-oxadiazole], the melting point is 109 to 111 °C. For the same compound, the inhibition of growth at 20 ppm in data set [1] is at least 80%. For the same compound, the pest or weed control at 200 ppm in data set [2] was at least 80%. The compound also gave a pest or weed control at 200 ppm in data set [3] of at least 80%.
For the compound `CCOCc1cc(-c2ccc(-c3noc(C(F)(F)F)n3)cc2)no1` [Compound C-5, 3-[4-[5-(ethoxymethyl)isoxazol-3-yl]phenyl]-5-(trifluoromethyl)-1,2,4-oxadiazole], in the data set with Phakopsora pachyrhizi, the pest or weed control at 200 ppm is at least 80%.
For the compound `FC(F)(F)c1nc(-c2ccc(C3CC(C4CC4)=NO3)cc2)no1` (centres unmarked) [Compound A-12, 3-[4-(3-cyclopropyl-4,5-dihydroisoxazol-5-yl)phenyl]-5-(trifluoromethyl)-1,2,4-oxadiazole], the melting point was 109 to 112 °C. The inhibition of growth at 20 ppm in data set [1] is at least 80%. The compound also yielded a pest or weed control at 200 ppm in the data set on Phakopsora pachyrhizi of at least 80%. Further, the pest or weed control at 200 ppm in data set [3] was at least 80%.
In the case of `CS(=O)(=O)N1CCCC1c1ccc(-c2noc(C(F)(F)F)n2)cc1` (centres unmarked) [Compound A-30, 3-[4-(1-methylsulfonyl-pyrrolidin-2-yl)phenyl]-5-(trifluoromethyl)-1,2,4-oxadiazole], the melting point lay within 117.7 to 118.6 °C. Also, in data set [1], the inhibition of growth at 20 ppm is at least 80%. The same compound returned a pest or weed control at 200 ppm in data set [2] of at least 80%. In data set [3], this compound registered a pest or weed control at 200 ppm of at least 80%.
On to `FC(F)(F)c1nc(-c2ccc(-c3nc(CCl)co3)cc2)no1` [Compound C-4, 3-[4-[4-(chloromethyl)oxazol-2-yl]phenyl]-5-(trifluoromethyl)-1,2,4-oxadiazole], for which the melting point fell in the range of 106 to 107 °C. Further, in data set [1], the inhibition of growth at 20 ppm was at least 80%. The same compound displayed a pest or weed control at 200 ppm in the data set with Phakopsora pachyrhizi of at least 80%.
On to `CC(=O)OCc1cnc(-c2ccc(-c3noc(C(F)(F)F)n3)cc2)o1` [Compound C-1, [2-[4-[5-(trifluoromethyl)-1,2,4-oxadiazol-3-yl]phenyl]oxazol-5-yl]methyl acetate], for which the melting point lay in the range of 69 to 71 °C. The pest or weed control at 200 ppm in the data set with Phakopsora pachyrhizi is at least 80%. The same compound came in with a pest or weed control at 200 ppm in data set [2] of at least 80%. In addition, the pest or weed control at 200 ppm in data set [3] is at least 80%.
`Fc1ccc(-c2ccc(-c3noc(C(F)(F)F)n3)cc2)cn1` [Compound D-6, 3-[4-(6-fluoro-3-pyridyl)phenyl]-5-(trifluoromethyl)-1,2,4-oxadiazole] gave a melting point of 75 to 80 °C. Also, in data set [1], the inhibition of growth at 20 ppm is at least 80%. In addition, in data set [2], the pest or weed control at 200 ppm was at least 80%. The compound also had a pest or weed control at 200 ppm in data set [3] of at least 80%.
Turning to `Cc1cnc(-c2ccc(-c3noc(C(F)(F)F)n3)cc2)o1` [Compound C-2, 3-[4-(5-methyloxazol-2-yl)phenyl]-5-(trifluoromethyl)-1,2,4-oxadiazole], the melting point is 110 to 111 °C and 109 to 111 °C. In the data set on Phakopsora pachyrhizi, this compound registered a pest or weed control at 200 ppm of at least 80%. This compound displayed a pest or weed control at 200 ppm in data set [2] of at least 80%. The compound also showed a pest or weed control at 200 ppm in data set [3] of at least 80%.
Consider `CC1(C)COC(c2ccc(-c3noc(C(F)(F)F)n3)cc2)=N1` [Compound A-2, 3-[4-(4,4-dimethyl-5H-oxazol-2-yl)phenyl]-5-(trifluoromethyl)-1,2,4-oxadiazole], for which the melting point lay in the range of 70 to 75 °C. In data set [1], this compound yielded an inhibition of growth at 20 ppm of at least 80%. In data set [2], the pest or weed control at 200 ppm is at least 80%. Also, in data set [3], the pest or weed control at 200 ppm was at least 80%.
`CN(C)C(=O)C(=O)NC1CSC(c2ccc(-c3noc(C(F)(F)F)n3)c(F)c2)=N1` (centres unmarked) [Compound A-24, N-[2-[3-fluoro-4-[5-(trifluoromethyl)-1,2,4-oxadiazol-3-yl]phenyl]-4,5-dihydrothiazol-4-yl]-N′,N′-dimethyl-oxamide] had a melting point of 120 to 165 °C. In data set [1], the inhibition of growth at 20 ppm was at least 80%. The compound also had a pest or weed control at 200 ppm in data set [2] of at least 80%. The pest or weed control at 200 ppm in data set [3] is at least 80%.
On to `Nc1ccc(-c2ccc(-c3noc(C(F)(F)F)n3)cc2)cn1` [Compound D-12, 5-[4-[5-(trifluoromethyl)-1,2,4-oxadiazol-3-yl]phenyl]pyridin-2-amine], for which the melting point is 155 to 160 °C. The compound further had an inhibition of growth at 20 ppm in data set [1] of at least 80%. The compound further displayed a pest or weed control at 200 ppm in the data set with Phakopsora pachyrhizi of at least 80%. In data set [3], the pest or weed control at 200 ppm was at least 80%.
Compound `FC(F)(F)c1nc(-c2ccc(C3=NCCO3)cc2)no1` [Compound A-3, 3-[4-(4,5-dihydrooxazol-2-yl)phenyl]-5-(trifluoromethyl)-1,2,4-oxadiazole] yielded a melting point of 120 to 125 °C. Besides, the pest or weed control at 200 ppm in the data set on Phakopsora pachyrhizi is at least 80%. Further, the pest or weed control at 200 ppm in data set [2] was at least 80%. In data set [3], the pest or weed control at 200 ppm was at least 80%.
In data set [1], `O=C(C1CC1)N1CCCC1c1ccc(-c2noc(C(F)(F)F)n2)cc1` (centres unmarked) [Compound A-36, cyclopropyl-[2-[4-[5-(trifluoromethyl)-1,2,4-oxadiazol-3-yl]phenyl]pyrrolidin-1-yl]methanone] yielded an inhibition of growth at 20 ppm of at least 80%. Moreover, the pest or weed control at 200 ppm (in the data set on Phakopsora pachyrhizi; in data set [2]) was at least 80% each time.
The compound `Fc1cc(-c2ccc(-c3noc(C(F)(F)F)n3)cc2)ccn1` [Compound D-7, 3-[4-(2-fluoro-4-pyridyl)phenyl]-5-(trifluoromethyl)-1,2,4-oxadiazole] registered a melting point of 105 to 110 °C. Further, the inhibition of growth at 20 ppm in data set [1] is at least 80%. The same compound showed a pest or weed control at 200 ppm in data set [2] of at least 80%. In addition, the pest or weed control at 200 ppm in data set [3] is at least 80%.
Compound `CC1(C)COC(c2ccc(-c3noc(C(F)(F)F)n3)cc2)NC1=O` (centres unmarked) [Compound A-10, 5,5-dimethyl-2-[4-[5-(trifluoromethyl)-1,2,4-oxadiazol-3-yl]phenyl]-1,3-oxazinan-4-one] yielded a melting point of 187.3 to 189 °C. Also, the inhibition of growth at 20 ppm in data set [1] is at least 80%. In addition, the pest or weed control at 200 ppm in the data set on Phakopsora pachyrhizi is at least 80%. This compound also yielded a pest or weed control at 200 ppm in data set [3] of at least 80%.
